Square brackets hold non-standard residues; d marks the D form. Peptide text beside a SMILES is read from it. * marks the point of attachment. Fluorescein(5-NHCOCH2) = O=C(C*)Nc1ccc2c(c1)C(=O)OC21c2ccc(O)cc2Oc2cc(O)ccc21; pS = N[C@@H](COP(=O)(O)O)C(=O)O; Sar = CNCC(=O)O
Target: T1, CBP KIX wild type (Mus musculus, UniProt P45481)
T1 construct: made in house; host or cells: E. coli BL21(DE3) pArg
Assay: Equilibrium fluorescence polarization, wild type CBP KIX
Format: binding
Details: 25° C.

T1 sequence (P45481 586-665 limits assumed): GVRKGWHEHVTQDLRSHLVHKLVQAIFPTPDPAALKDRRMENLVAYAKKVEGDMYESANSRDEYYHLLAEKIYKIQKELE

Row | Kd [nM] | SMILES
1 | 1070 ± 80 | CC[C@H](C)[C@H](NC(=O)[C@H](Cc1ccc(O)cc1)NC(=O)[C@H](Cc1ccccc1)NC(=O)[C@H](Cc1ccccc1)NC(=O)[C@H](COP(=O)(O)O)NC(=O)[C@H](CC(C)C)NC(=O)[C@H](CCCNC(=N)N)NC(=O)[C@H](CCCNC(=N)N)NC(=O)[C@@H](NC(=O)[C@@H]1CCCN1C(=O)[C@H](C)NC(=O)[C@H](CC(=O)O)NC(=O)[C@H](CC(=O)O)NC(=O)CNC(=O)[C@H](C)NC(=O)[C@H](Cc1ccc(O)cc1)NC(=O)[C@@H](NC(=O)[C@@H]1CCCN1C(=O)[C@H](CCC(N)=O)NC(=O)[C@H](CO)NC(=O)[C@@H]1CCCN1C(=O)CN)[C@@H](C)O)C(C)C)C(=O)N[C@@H](CC(C)C)C(=O)N[C@@H](CC(C)C)C(=O)N[C@@H](CC(=O)O)C(=O)N[C@@H](CC(C)C)C(=O)N[C@@H](Cc1ccc(O)cc1)C(=O)N[C@@H](CC(C)C)C(=O)N[C@@H](CC(=O)O)C(=O)N[C@@H](C)C(=O)N1CCC[C@H]1C(=O)NCC(=O)N[C@H](C(=O)N[C@@H](CSCC(=O)Nc1ccc2c(c1)C(=O)OC21c2ccc(O)cc2Oc2cc(O)ccc21)C(N)=O)C(C)C [P8A] (H-GPSQPTYAGDDAPVRRL[pS]FFYILLDLYLDAPGVC(Fluorescein(5-NHCOCH2))-NH2)
2 | 870 ± 40 | CC[C@H](C)[C@H](NC(=O)[C@H](Cc1ccc(O)cc1)NC(=O)[C@H](Cc1ccccc1)NC(=O)[C@H](Cc1ccccc1)NC(=O)[C@H](COP(=O)(O)O)NC(=O)[C@H](CC(C)C)NC(=O)[C@H](CCCNC(=N)N)NC(=O)[C@H](CCCNC(=N)N)NC(=O)[C@@H](NC(=O)[C@@H]1CCCN1C(=O)[C@H](C)NC(=O)[C@H](CC(=O)O)NC(=O)[C@H](CC(=O)O)NC(=O)CNC(=O)[C@@H]1CCCN1C(=O)[C@H](Cc1ccc(O)cc1)NC(=O)[C@@H](NC(=O)[C@@H]1CCCN1C(=O)[C@H](CCC(N)=O)NC(=O)[C@H](CO)NC(=O)[C@H](C)NC(=O)CN)[C@@H](C)O)C(C)C)C(=O)N[C@@H](CC(C)C)C(=O)N[C@@H](CC(C)C)C(=O)N[C@@H](CC(=O)O)C(=O)N[C@@H](CC(C)C)C(=O)N[C@@H](Cc1ccc(O)cc1)C(=O)N[C@@H](CC(C)C)C(=O)N[C@@H](CC(=O)O)C(=O)N[C@@H](C)C(=O)N1CCC[C@H]1C(=O)NCC(=O)N[C@H](C(=O)N[C@@H](CSCC(=O)Nc1ccc2c(c1)C(=O)OC21c2ccc(O)cc2Oc2cc(O)ccc21)C(N)=O)C(C)C [P2A] (H-GASQPTYPGDDAPVRRL[pS]FFYILLDLYLDAPGVC(Fluorescein(5-NHCOCH2))-NH2)
3 | 800 ± 30 | CC[C@H](C)[C@H](NC(=O)[C@H](Cc1ccc(O)cc1)NC(=O)[C@H](Cc1ccccc1)NC(=O)[C@H](Cc1ccccc1)NC(=O)[C@H](COP(=O)(O)O)NC(=O)[C@H](CC(C)C)NC(=O)[C@H](CCCNC(=N)N)NC(=O)[C@H](CCCNC(=N)N)NC(=O)[C@@H](NC(=O)[C@@H]1CCCN1C(=O)[C@H](C)NC(=O)[C@H](CC(=O)O)NC(=O)[C@H](CC(=O)O)NC(=O)CNC(=O)[C@@H]1CCCN1C(=O)[C@H](Cc1ccc(O)cc1)NC(=O)[C@@H](NC(=O)CN(C)C(=O)[C@H](CCC(N)=O)NC(=O)[C@H](CO)NC(=O)[C@@H]1CCCN1C(=O)CN)[C@@H](C)O)C(C)C)C(=O)N[C@@H](CC(C)C)C(=O)N[C@@H](CC(C)C)C(=O)N[C@@H](CC(=O)O)C(=O)N[C@@H](CC(C)C)C(=O)N[C@@H](Cc1ccc(O)cc1)C(=O)N[C@@H](CC(C)C)C(=O)N[C@@H](CC(=O)O)C(=O)N[C@@H](C)C(=O)N1CCC[C@H]1C(=O)NCC(=O)N[C@H](C(=O)N[C@@H](CSCC(=O)Nc1ccc2c(c1)C(=O)OC21c2ccc(O)cc2Oc2cc(O)ccc21)C(N)=O)C(C)C [P5Z] (H-GPSQ[Sar]TYPGDDAPVRRL[pS]FFYILLDLYLDAPGVC(Fluorescein(5-NHCOCH2))-NH2)
